Test results from US9351494B2, “Honeybee repellents and uses thereof” (Inscent, Inc., priority 2013, dated 2016).

Columns and labels:
[1] = cited from earlier work
[2] = system: Apis mellifera Carniolan foraging worker honeybees; test: proboscis extension response (PER) assay with bees conditioned to 2-heptanone; format: in vivo; conditions: for 2-heptanone positive bees testing positive to compound: PER, compound 0.5% on filter paper, 4 seconds exposure, only bees giving a PER with 2-heptanone but not with negative controls counted
Experimental: To determine whether a living honeybee can recognize a candidate compound, these compounds were tested using a proboscis extension response (PER) assay using classical conditioning approaches. Proboscis extension response conditioning is a case of appetitive learning, in which bees learn to associate odor stimuli with sucrose reward in the laboratory. In this case, bees were conditioned to produce a PER to 2-heptanone as the conditioned stimulus and a sugar reward as the unconditioned stimulus. These trained bees were then exposed to an odor pulse of a candidate compound to test whether a candidate compound would also produce a PER. If the candidate compound “mimics” 2-heptanone then the honeybee will extend its proboscis. For conditioning procedures, Apis mellifera Carniolan foraging worker honeybees were obtained from a local apiary (typically 60 bees per shipment). The honeybees were held overnight in insect cages with food and water freely available, in an environmentally controlled room on a light cycle similar to the ambient cycle at the time of the assay. For conditioning procedures, all tests were done in an odorant delivery apparatus set inside a fume hood. The apparatus comprised a set of open-ended, horizontal, 3 cm diameter by 10 cm long plastic tubes. Each tube was designed where a honeybee could be positioned at the distal end of a tube, with the opening at the other end of the tube located proximal to an inlet of the fume hood. To deliver an odorant, room air was pumped by a diaphragm pump through a particle filter via 0.25 inch plastic tubing at approximately 0.7 m/sec. The air flow passes into the headspace above an odorant (0.5% [v/v]2-heptanone dissolved in odorless light paraffin oil) contained in a 100 mL bottle. The headspace air then passes through another plastic tube to a manifold of 4-way valves, each of which was attached near the proximal end of a plastic tube containing a bee. Each bee was exposed separately for a desired time period to the odorant by opening and closing the appropriate valve. When each valve was closed, the odor was flushed away immediately by the continuous fume hood air stream. To train a honeybee to respond to a conditioned and unconditioned stimuli, bees were placed, without anesthesia, in individual 1.5 mL micro-centrifuge holding tubes and held overnight without access to food or water. The holding tubes containing the starved bees were placed in racks in groups of eight. One rack at a time was placed behind the odorant delivery apparatus so that each bee's head is centered at the distal end of a horizontal plastic tube. Each bee was exposed to the 2-heptanone odorant alone for four seconds, and then while being fed an 80% sucrose solution for and additional three seconds. The sucrose solution was delivered on a piece of saturated filter paper held in forceps. […] Positive and negative responses were recorded. A positive PER was scored when a bee extended its proboscis before the sucrose appeared. In a typical trial, 48 individual bees were subjected to conditioning. Six rounds of training were done before testing began, and typically a majority of the bees were successfully conditioned by the second or third round of training. After conditioning, honeybees were tested with the candidate compounds the same day or on the following day or, most commonly, both. When held overnight, bees were fed with sucrose and kept in their holding tubes. When tested the day after training, bees were given one or more rounds of conditioning with 2-heptatone to refresh their memories. Candidate compounds stocks were made at 5% (w/v) in polyoxyethylene octyl phenyl ether (TRITON® X-100), a non-ionic detergent/surfactant, and stored at 4° C. This detergent is similar to substances used as carriers for a variety of commercial pest-control agents, can act as a solvent for both hydrophilic and hydrophobic substances, and is itself nearly odorless. […]

OBP2 = test: fluorescent-quench, ligand-protein-binding assay (OBP2 binding); set-up: species or system Apis mellifera
Source text: To identify a honeybee repellent disclosed herein, candidate compounds were screened based upon the fact that 2-heptanone is an established repellent of bees. 2-heptanone is thought to mediate its behavioral response through binding to a specific odorant-binding protein called OBP2. Therefore compounds that bind OBP2 have the potential to act as odor “mimics” of 2-heptanone. By utilizing a fluorescent-quench, ligand-protein-binding assay, 30,000 compounds from the […]® library (ChemBridge Corp., San Diego, Calif.), a chemical library, were screened and over 150 candidate compounds were isolated that bind OBP2 (Table 1). Such assays are generally known in the art. See, e.g., Briand, et al., Ligand-Binding Properties and Structural Characterization of a Novel Rat Odorant-Binding Protein Variant, Eur. J. Biochem. 267(10): 3079-3089 (2000); Briand, et al., Ligand Binding and Physico-Chemical Properties of ASP2, A Recombinant Odorant-Binding Protein From Honeybee (Apis mellifera L.), Eur. J. Biochem. 268(3): 752-760 (2001); Briand, et al., Characterization of a Chemosensory Protein (ASP3c) from Honeybee (Apis mellifera L.) as a Brood Pheromone Carrier, Eur. J. Biochem. 269(18): 4586-4596 (2002), each of which is hereby incorporated by reference in its entirety.

[3] = system: Apis mellifera Carniolan foraging worker honeybees; test: choice test in a free-flight box apparatus; format: in vivo; conditions: for Z-score: Z-test (alpha=10%) versus control likelihood 47.5%, critical Z-score 1.282, positive value attractant, negative repellant; for nP (number of tests a honeybee returned to a preferred test dish): candidate compound 0.05-0.5% on filter paper below honey dish, out of n total tests; for P (probability that a honeybee will return to a test dish, nP/n): compared to control likelihood of 47.5% without compound
Source text: To determine whether living honeybees will choice to move towards a source of a candidate compound, these compounds will be assayed using a choice test in a free-flight box apparatus.
All tests will be done in a free-flight box apparatus. The apparatus comprises a 244 cm long×46 cm deep×30 cm high clear plastic box including two equally-sized independent testing chambers, each with 10 cm diameter air inlets that admit filtered room air, separated by a smaller central chamber with a screened air outlet to each testing chamber. Air can be pulled through the sealed box via a 10 cm diameter duct from the air outlet using an AQE Fume Fighter 500 fume extractor (BPA Air Quality Solutions, LLC, Charleston, S.C.), which removes the test odors using activated charcoal and HEPA filters. The box is housed in an environmentally controlled room with overhead illumination timed to correspond to the current ambient light cycle including 2 additional sets of lights timed to approximate crepuscular lighting conditions. The bottom of the apparatus will be lined with clean absorbent paper marked with a 4×9 grid pattern, forming 12 cm×12 cm squares with marked coordinates.
Apis mellifera Carniolan foraging worker honeybees will be obtained from a local apiary (typically 60 bees per shipment). Thirty honeybees will be put into each testing chamber and will be allowed to acclimate for 24 hours with food and water freely available. At the beginning of each test day all food will be removed from the test chamber, but water will be continually available throughout all tests. For each test, approximately 0.3 g of organic, raw orange blossom honey will be added to each clean small plastic weigh boat (Cole-Palmer). The honey boats will be placed in small plastic culture dishes, which will be distributed in the marked squares in the chambers. The positions of the dishes on the grid for a set of trials was chosen to avoid bees' preferred resting area so that they will have to find the food actively, but the same dish positions will be maintained for a given set of trials. We will use seven dishes of honey: six to which the bees will have access and a seventh that will have a screened lid. The honey in each boat was weighed on an analytical balance before and after the test, with the screened sample as a control for evaporative loss. The fume extractor was left off during the experimental trails, and was turned on to clear the air after the test dishes were covered and removed from the chamber at the end of each trial.
Based on the observation that bees tend to return to dishes in the same position where they have fed before, each set of trials with each group of bees began with “Pattern Identification” tests to see which dishes lose the most weight, reflecting the most feeding. Once bees are consuming an acceptable amount in 10-15 min, typically in 1-2 trials, a set of test compound trials will begin. The test compound will be pipetted onto pieces of filter paper placed on the dish bottom below the boat containing a fresh, weighed honey sample so that the test compound will be inaccessible to the bees. We used 2 μL of a candidate compound at a concentration of 0.05-0.5%, in Triton X-100 or paraffin oil, on each of four pieces of filter paper per dish. The test-solution dishes will be set at the same positions as the one or two dishes favored in the preceding Pattern Identification trial. To eliminate interference from the solvent, the other dishes without the test substance will contain the same volume of the appropriate solvent on filter papers as the test solution dishes. The bees will be allowed to feed for 10-15 minutes. Bee movements will be recorded by a small, wide-angle digital video camcorder (HD Hero 960; GoPro, Halfmoon Bay, Calif.) placed on a tripod in front of the test chamber. […]

Compound	solubility in alcohol or ether ([1]; alcohol or ether)	solubility in water ([1]; water)	total bees subjected to conditioning that exhibited a PER with the 2-heptanone positive control ([2]; 0.5% 2-heptanone in paraffin oil)	OBP2 binding characteristic of compound (OBP2)	2-heptanone positive bees testing positive to compound [2]	Z-score [3]	nP (number of tests a honeybee returned to a preferred test dish) [3]	P (probability that a honeybee will return to a test dish, nP/n) [3]
CCCCCC(C)=O [2-heptanone, 2-Heptanone]	soluble	very slightly soluble	about half					
O=C(NC(=S)N1CCCc2ccccc21)c1ccccc1 [Candidate Compound 62, N-(3,4-dihydro-1(2H)-quinolinylcarbonothioyl)benzamide]				Moderate (Moderate, indicates that 50% or less of the compound bound to OBP2.)	23.6%			
COc1ccc(C2SCC(=O)N2CCc2ccccc2)cc1 (centres unmarked) [Candidate Compound 63, 2-(4-methoxyphenyl)-3-(2-phenylethyl)-1,3-thiazolidin-4-one]				Moderate (Moderate, indicates that 50% or less of the compound bound to OBP2.)	21.4%	0.394	32	0.5
CCOc1cc(C)nc(-c2ccccc2O)n1 [Candidate Compound 64, 2-(4-ethoxy-6-methyl-2-pyrimidinyl)phenol]				Moderate (Moderate, indicates that 50% or less of the compound bound to OBP2.)	21.7%	−3.043	16	0.276
COc1ccc(CCC(C)NN2CCOCC2)cc1 (centres unmarked) [Candidate Compound 65, N-[3-(4-methoxyphenyl)-1-methylpropyl]-4-morpholinamine]				Moderate (Moderate, indicates that 50% or less of the compound bound to OBP2.)	7.6%			
CCOC(=O)c1c(NC(=O)C(C)(C)C)sc2c1CCCC2 [Candidate Compound 69, ethyl 2-[(2,2-dimethylpropanoyl)amino]-4,5,6,7-tetrahydro-1-benzothiophene-3-carboxylate]				Moderate (Moderate, indicates that 50% or less of the compound bound to OBP2.)	6.5%			
Nc1c(C(=O)c2ccccc2)sc2nc(-c3ccccc3)ccc12 [Candidate Compound 76, (3-amino-6-phenylthieno[2,3-b]pyridin-2-yl)(phenyl)methanone]				Moderate (Moderate, indicates that 50% or less of the compound bound to OBP2.)	11.9%			
C=CCOc1cc(C)nc(-c2ccccc2O)n1 [Candidate Compound 104, 2-[4-(allyloxy)-6-methyl-2-pyrimidinyl]phenol]				Moderate (Moderate, indicates that 50% or less of the compound bound to OBP2.)	27.9%			
